# Measured values from US20090110671A1, “AGENT FOR ENHANCHING THE PRODUCTION OF COLLAGEN AND IT'S USE” (priority 2005, published 2009).
# Legend:
# [1] = test system: skin wrinkles/finely-wrinkles and flabby skin; assay: Experiment 5: self-evaluation of lotions on skin wrinkles/finely-wrinkles and flabby skin, four months; type: in vivo, human; conditions: 4 months; for Evaluation A (remarkably efficacious) / Evaluation B (efficacious) / Evaluation C (slightly efficacious) / Evaluation D (inefficacious): lotion
# Description: The following experiment was conducted to examine the influence of α,α-trehalose or saccharide derivatives thereof and hyaluronic acid and/or chondroitin sulfate on the skin. Since there exists a relatively constant amount of L-ascorbic acid in vivo, the collagen production by L-ascorbic acid proceeds constantly. Based on the following basic formulation for lotion and the combination and composition in Table 5, 100 parts by weights of a lotion was prepared by adding to the basic formulation sodium hyaluronate, chondroitin sulfate, hydrous crystalline α,α-trehalose, a cosmetic grade specimen commercialized by Hayashibara Biochemical Laboratories Inc., Okayama, Japan, and “[…]”, a product name of a syrup having a solid content of about 75% and containing, on a dry solid basis, about 53% by weight of α-maltosyl α,α-trehalose and about 5% by weight of other saccharide derivatives of α,α-trehalose, and an adequate amount of refined water. In Table 5, the respective amounts of the added saccharide are expressed on a dry solid basis. The syrup containing saccharide derivatives of α,α-trehalose was added in an amount of the saccharide derivatives as shown in Table 5. Eleven women as volunteers, who had been suffering from skin wrinkles/finely-wrinkles or flabby skin, were allowed to wash their faces with any of the lotions having compositions in Table 5 three times a day for four months and then allowed to evaluate themselves about their face-skin conditions by comparing with those before use of the lotions.
# [2] = test system: NHDF cells; assay: Experiment 4: collagen production in NHDF cells, saccharides combined with hyaluronic acid and/or chondroitin sulfate; type: cell-based, human
# From the text: Influence of α,α-trehalose or a saccharide derivative thereof, or a combination use of any of these saccharides and hyaluronic acid and/or chondroitin sulfate on the collagen production by L-ascorbic acids was examined as follows. AA-2G and any one of hydrous crystalline α,α-trehalose, a reagent grade specimen commercialized by Hayashibara Biochemical Laboratories Inc., Okayama, Japan; α-maltosyl α,α-trehalose with a purity of at least 98% commercialized by Hayashibara Biochemical Laboratories Inc., Okayama, Japan; and “HALLODEX”, a product name of a syrup of saccharide derivatives of α,α-trehalose were dissolved in D-MEM medium to give final concentrations of 50 μM of AA-2G and 15.0 mg/ml of saccharides. Further, as another test solutions, those, which had been prepared similarly as in the above, were admixed with any one of hyaluronic acid, chondroitin sulfate, and a combination thereof to give respective concentrations of 1 mg/ml, 1 mg/ml, and 0.5 mg/ml of hyaluronic acid and chondroitin sulfate each. The medium supplemented with a syrup containing about 59%, d.s.b., of saccharide derivatives of α,α-trehalose was prepared to give a concentration of 15.0 mg/ml of the saccharide derivatives of α,α-trehalose contained in the syrup. The culture of NHDF cells and the quantification of collagen-production level thereof were carried out similarly as in Experiment 1. The results are in Table 4 where the values are expressed with relative values in terms of the collagen-production level of NHDF cells, being regarded as 100, when cultured in D-MEM medium containing AA-2G.
# [3] = test system: NHDF cells; assay: Experiment 2: collagen sedimented over cell surface and released in supernatant of NHDF cells, α,α-trehalose or maltose with AA-2G; type: cell-based, human; conditions: relative to AA-2G = 100
# Description: Influence of α,α-trehalose and maltose on collagen production using NHDF cells was examined by the following experiment: Test solutions were prepared by dissolving either AA-2G; hydrous crystalline α,α-trehalose, a reagent grade specimen, commercialized by Hayashibara Biochemical Laboratories Inc., Okayama, Japan; or hydrous crystalline maltose, a reagent grade specimen, commercialized by Hayashibara Biochemical Laboratories Inc., Okayama; Japan, in […] The methods for culturing NHDF cells and quantifying the collagen-production level of the cells were conducted similarly as in Experiment 1. The collagen level in each culture supernatant of NHDF cells was determined in such a manner of collecting the culture supernatant and quantifying the collagen released in the supernatant by using “Sircol Collagen Quantification Kit”. As a control, D-MEM medium containing 50 μM AA-2G was used. These control and test solutions were respectively experimented using three wells, followed by calculating a mean value for collagen-production levels in the wells. The results are in Table 2 where the values are expressed with relative values for either or both of the levels of collagen, that had sedimented over the cell surfaces or released in the supernatants, in terms of their collagen-production levels of NHDF cells, which had been cultured in D-MEM medium containing 50 μM AA-2G, being regarded as 100.
# [4] = added saccharide 0.05 part by weight, 3 times a day
# [5] = added saccharide 0.1 part by weight, 3 times a day
# [6] = added saccharide 1 part by weight, 3 times a day
# [7] = added saccharide 2 + chondroitin sulfate 0.5 part by weight
# [8] = added saccharide 2 + sodium hyaluronate 0.25 + chondroitin sulfate 0.25 part by weight
# [9] = added saccharide 2 + sodium hyaluronate 0.5 part by weight
# [10] = added saccharide 2 parts by weight, 3 times a day
# [11] = added saccharide 10 parts by weight, 3 times a day
# [12] = added saccharide 20 parts by weight, 3 times a day
# [13] = saccharide 15.0 mg/ml + 50 μM AA-2G
# [14] = saccharide 0.2 mg/ml + 50 μM AA-2G
# [15] = saccharide 0.6 mg/ml + 50 μM AA-2G
# [16] = saccharide 1.7 mg/ml + 50 μM AA-2G
# [17] = saccharide 5.0 mg/ml + 50 μM AA-2G
smiles,measurement,setting,value
"OC[C@H]1O[C@H](O[C@H]2O[C@H](CO)[C@@H](O)[C@H](O)[C@H]2O)[C@H](O)[C@@H](O)[C@@H]1O [α,α-trehalose]",Evaluation A (remarkably efficacious),[1]; [4],0 number of volunteers
same,Evaluation B (efficacious),[1]; [4],0 number of volunteers
same,Evaluation C (slightly efficacious),[1]; [4],3 number of volunteers
same,Evaluation D (inefficacious),[1]; [4],8 number of volunteers
same,Evaluation A (remarkably efficacious),[1]; [5],0 number of volunteers
same,Evaluation B (efficacious),[1]; [5],2 number of volunteers
same,Evaluation C (slightly efficacious),[1]; [5],5 number of volunteers
same,Evaluation D (inefficacious),[1]; [5],4 number of volunteers
same,Evaluation A (remarkably efficacious),[1]; [6],2 number of volunteers
same,Evaluation B (efficacious),[1]; [6],2 number of volunteers
same,Evaluation C (slightly efficacious),[1]; [6],6 number of volunteers
same,Evaluation D (inefficacious),[1]; [6],1 number of volunteers
same,Evaluation A (remarkably efficacious),[1]; [7],3 number of volunteers
same,Evaluation B (efficacious),[1]; [7],5 number of volunteers
same,Evaluation C (slightly efficacious),[1]; [7],3 number of volunteers
same,Evaluation D (inefficacious),[1]; [7],0 number of volunteers
same,Evaluation A (remarkably efficacious),[1]; [8],6 number of volunteers
same,Evaluation B (efficacious),[1]; [8],3 number of volunteers
same,Evaluation C (slightly efficacious),[1]; [8],2 number of volunteers
same,Evaluation D (inefficacious),[1]; [8],0 number of volunteers
same,Evaluation A (remarkably efficacious),[1]; [9],3 number of volunteers
same,Evaluation B (efficacious),[1]; [9],4 number of volunteers
same,Evaluation C (slightly efficacious),[1]; [9],3 number of volunteers
same,Evaluation D (inefficacious),[1]; [9],1 number of volunteers
same,Evaluation A (remarkably efficacious),[1]; [10],2 number of volunteers
same,Evaluation B (efficacious),[1]; [10],4 number of volunteers
same,Evaluation C (slightly efficacious),[1]; [10],4 number of volunteers
same,Evaluation D (inefficacious),[1]; [10],1 number of volunteers
same,Evaluation A (remarkably efficacious),[1]; [11],3 number of volunteers
same,Evaluation B (efficacious),[1]; [11],3 number of volunteers
same,Evaluation C (slightly efficacious),[1]; [11],5 number of volunteers
same,Evaluation D (inefficacious),[1]; [11],0 number of volunteers
same,Evaluation A (remarkably efficacious),[1]; [12],3 number of volunteers
same,Evaluation B (efficacious),[1]; [12],3 number of volunteers
same,Evaluation C (slightly efficacious),[1]; [12],5 number of volunteers
same,Evaluation D (inefficacious),[1]; [12],0 number of volunteers
same,volunteers who evaluated the lotions efficacious or more,[1]; lotions with 2 to 20 parts by weight of saccharide,six
same,Collagen-production level,[2]; [13],203
same,Collagen-production level,[2]; saccharide 15.0 mg/ml + 50 μM AA-2G + chondroitin sulfate 1 mg/ml,256
same,Collagen-production level,[2]; saccharide 15.0 mg/ml + 50 μM AA-2G + hyaluronate and chondroitin sulfate 0.5 mg/ml each,344
same,Collagen-production level,[2]; saccharide 15.0 mg/ml + 50 μM AA-2G + sodium hyaluronate 1 mg/ml,276
same,Collagen-production level,"[2]; saccharide 15.0 mg/ml alone, no AA-2G, no hyaluronate, no chondroitin sulfate",42
same,"Collagen-production level, In supernatant",[3]; [14],103
same,"Collagen-production level, Total",[3]; [14],101
same,"Collagen-production level, In supernatant",[3]; [15],203
same,"Collagen-production level, Total",[3]; [15],131
same,"Collagen-production level, In supernatant",[3]; [16],250
same,"Collagen-production level, Total",[3]; [16],154
same,"Collagen-production level, In supernatant",[3]; [17],232
same,"Collagen-production level, Total",[3]; [17],169
same,"Collagen-production level, In supernatant",[3]; [13],1058
same,"Collagen-production level, Total",[3]; [13],335
